Source: article PMC9486805, “Identification of a Phage Display-Derived Peptide Interacting with the N-Terminal Region of Factor VII Activating Protease (FSAP) Enables Characterization of Zymogen Activation” (ACS Chemical Biology, 2022)

Key:
ΔNTR mutant = test: Binding of biotinylated peptides to captured ΔNTR mutant; set-up: species or system human; details: peptide 1 μM; triplicate wells (Fig 2E)
Description: Figure 2 NNKC9/41 interacts with the NTR of pro-FSAP: (A) To determine peptide binding to pro-FSAP, wells were coated with 2 μg/mL pro-FSAP and biotinylated NNKC9/41 and NNK11/189 and their respective scrambled controls were added in different concentration (0–5 μM). Peroxidase-labeled streptavidin was used to detect peptide binding. (B) Same procedure as in (A) except that different proteins were immobilized and biotinylated NNKC9/41 (0–30 μM) was added and its binding was measured. (C) Schematic structure of pro-FSAP with the heavy chain consisting of an NTR, three EGF domains, and a kringle domain, followed by the light chain harboring the serine protease domain (SPD). The binding domains of antibodies used in this study are indicated. (D) Recombinant complete heavy chain (heavy) and truncated heavy chain variants ΔNTR, ΔEGF1, ΔEGF2, ΔEGF3, and ΔKringle were expressed in bacteria and analyzed by sodium dodecyl sulfate poly(acrylamide) gel electrophoresis (SDS-PAGE) followed by Coomassie staining. […] Biotinylated NNKC9/41 or the scrambled control peptide was added at 1 μM and peptide binding was measured with peroxidase-linked streptavidin. […]
Wells were coated with anti-FSAP polyclonal antibodies (5 μg/mL). […] Subsequently, the plates were washed, and bound peptides were detected with peroxidase-coupled streptavidin. […]

pro-FSAP in human plasma = target: T1, pro-FSAP in human plasma (Homo sapiens, UniProt Q14520); test: Activation of endogenous pro-FSAP in plasma, fluorogenic substrate turnover; type: biochemical
T1 construct: from tissue; host or cells: human hirudin or citrate plasma from healthy donors, diluted 1:12
T1 sequence (Q14520 24-560): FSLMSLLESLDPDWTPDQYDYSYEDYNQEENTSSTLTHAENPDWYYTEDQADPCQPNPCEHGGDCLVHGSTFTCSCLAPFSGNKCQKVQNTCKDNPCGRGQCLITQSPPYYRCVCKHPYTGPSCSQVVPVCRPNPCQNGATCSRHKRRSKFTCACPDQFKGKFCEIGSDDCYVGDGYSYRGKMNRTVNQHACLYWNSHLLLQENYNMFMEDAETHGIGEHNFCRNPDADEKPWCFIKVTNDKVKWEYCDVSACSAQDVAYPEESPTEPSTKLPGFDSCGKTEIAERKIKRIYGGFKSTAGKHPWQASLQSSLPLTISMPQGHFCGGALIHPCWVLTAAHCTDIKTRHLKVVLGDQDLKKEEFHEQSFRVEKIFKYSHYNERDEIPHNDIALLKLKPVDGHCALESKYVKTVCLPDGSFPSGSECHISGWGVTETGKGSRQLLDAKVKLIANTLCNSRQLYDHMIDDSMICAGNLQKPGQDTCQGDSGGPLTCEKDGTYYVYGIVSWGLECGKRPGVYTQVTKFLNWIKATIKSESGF
Description: Human citrate plasma (0.38% w/v) or hirudin plasma (25 μg/mL Lepirudin) was obtained from five healthy donors. Plasma was diluted at 1:12 and mixed with various test substances that potentially activate or inhibit pro-FSAP. Ac–Ala–Lys–Nle–Arg–AMC (amino–methyl–coumarin) was used as a sensitive and specific substrate for FSAP.[35] Hydrolysis of the fluorogenic substrates was measured using a Synergy HI plate reader with excitation at 320 nm and emission at 460 nm at 37 °C for 60 min. The maximal velocity was calculated from the linear part of the progress curve. In limited experiments, the second-generation fluorogenic FSAP substrate (Ac–Pro–DTyr–Lys–Arg–AMC)[34] was used. Pro-uPA activation, formation of FSAP−α2-antiplasmin, and western blotting with anti-FSAP antibodies were also used to monitor pro-FSAP activation.

[1] = test system: recombinant serine protease domain (SPD) of FSAP; test: Activity of recombinant serine protease domain of FSAP; type: biochemical, human; details: rSPD 20 nM; peptide 0-50 μM; S2288 250 µM (Fig S7A)
Description: Fig S7. […]
(§1) nM) and Factor Xa (20 nM) with S-2765 (250 µM). pro-FSAP (20 nM) and recombinant serine protease domain (rSPD) (20 nM) with S2288 (250 µM). All pro-enzymes and enzyme were obtained from Enzyme Research Laboratories (South Bend, IN, USA) except plasminogen and FSAP, which were isolated in house; and pro-uPA was from Grünenthal (Stolberg, Germany). All chromogenic substrates were from Hyphen Biomed (Neuville Sur Oise, France). Experiments were carried out in TBS with Tween-20 (0.1 % wt/ vol) BSA (0.3% wt/vol) and CaCl2 (2 mM). Absorbance at 405 nm was measured over time and the enzyme activity is depicted was measured in duplicates (mean + or -range) and similar results were obtained in 3

prothrombin = test: Specificity towards pro-enzymes: prothrombin; type: biochemical; details: prothrombin 100 nM; peptide 0-50 μM; CS01 (Fig S7)
Description: Fig S7. […]
Pro-thrombin (100 nM) and thrombin (20 nM) […]
as §1, with “Bend,” for “nM) and Factor Xa (20 nM) with S-2765 (250 µM). pro-FSAP (20 nM) and recombinant serine protease domain (rSPD) (20 nM) with S2288 (250 µM). All pro-enzymes and enzyme were obtained from Enzyme Research Laboratories (South Bend,”

pro-FSAP in WT/WT plasma = test: Substrate turnover in WT/WT plasma; type: biochemical, human; details: WT/WT citrate plasma 1:12; 25 μM (Fig 6A)
Description: (§2) Figure 6 Pro-FSAP activation and clotting in plasma by NNKC9/41: (A) citrate plasma (1:12 dilution) from donors with WT/WT, WT/MI, and MI/MI genotypes and WT-FSAP-deficient plasma (FSAP-DP) were compared. Substrate turnover was monitored after addition of NNKC9/41 or the Ser–Ser linear peptide (25 μM each). Results are shown as mean + range of duplicate wells. (B) Pooled prothrombin-deficient citrated plasma (1:5 dilution) was recalcified with 10 mM CaCl2 and incubated with NNKC9/41 or scrambled control peptide (0–25 μM each) for 60 min at 37 °C in the presence or absence of the FSAP-inhibitory MA-FSAP-38C7 (5 μg/mL). Initiation of clotting was achieved by adding the tissue factor/phospholipid and prothrombin complex concentrate. Clotting time was measured as diluted prothrombin time (dPT) in seconds. Data are the mean of three independent experiments. The relative dPT in % of the untreated control is presented as mean ± standard error (SE) (*p <0.05, two-way analysis of variance (ANOVA) and Bonferroni post-test).
(§3) Human citrate plasma (0.38% w/v) or hirudin plasma (25 μg/mL Lepirudin) was obtained from five healthy donors. […] Hydrolysis of the fluorogenic substrates was measured using a Synergy HI plate reader with excitation at 320 nm and emission at 460 nm at 37 °C for 60 min. The maximal velocity was calculated from the linear part of the progress curve. […]

[2] = Substrate turnover in FSAP-depleted plasma; type: biochemical, human; details: FSAP-depleted citrate plasma 1:12; 25 μM (Fig 6A)
Description: as §2, §3

pro-FSAP in MI/MI plasma = test: Substrate turnover in MI/MI plasma; type: biochemical, human; details: MI/MI citrate plasma 1:12; 25 μM (Fig 6A)
Description: as §2, §3

CRGAMWMYKRC [NNKC9/41]
peptide binding to ΔNTR mutant (ΔNTR mutant): very low binding
inhibitory effect of citrate after recalcification (pro-FSAP in human plasma; citrate plasma 1:12, recalcified, data not shown): reversed by recalcification
effect in citrate plasma 1:12 (pro-FSAP in human plasma; citrate plasma 1:12, 10 μM, 3 donors (Fig S5)): weak
fluorogenic substrate turnover vs histones (pro-FSAP in human plasma; hirudin plasma 1:12, NNKC9/41 0–25 μM, histones 0–25 μg/mL, three donors (Fig 4A)): stronger effect than histones
pro-FSAP activation in plasma (pro-FSAP in human plasma; hirudin plasma 1:12, peptides 25 μM, histones 25 μg/mL, Ac–Ala–Lys–Nle–Arg–AMC, duplicate wells (Fig 1D)): robust activation of pro-FSAP comparable to that with histones
pro-FSAP activation in hirudin plasma (pro-FSAP in human plasma; hirudin plasma, dilutions 1:2 to 1:12, 10 μM, 3 donors (Fig S5)): activated pro-FSAP in plasma
lag time of pro-FSAP activation (pro-FSAP in human plasma; plasma, compared to histones (Fig 1D)): > 15 min
effect on activity of recombinant SPD [1]: did not alter the activity
effect on activity (prothrombin): did not influence the activity
substrate turnover (pro-FSAP in WT/WT plasma): high substrate turnover
substrate turnover [2]: no turnover of the substrate
substrate turnover (pro-FSAP in MI/MI plasma): none
